Measurements reported in PMC3254236 (Bioorganic & Medicinal Chemistry, 2011).

biological target: T1, full length murine FXR (Mus musculus, UniProt Q60641); assay: Reporter gene assay for FXR activation; assay type: cell-based; settings: Ganoderma constituents 10 μM; normalized to CDCA 25 μM
T1 sequence (Q60641 1-488): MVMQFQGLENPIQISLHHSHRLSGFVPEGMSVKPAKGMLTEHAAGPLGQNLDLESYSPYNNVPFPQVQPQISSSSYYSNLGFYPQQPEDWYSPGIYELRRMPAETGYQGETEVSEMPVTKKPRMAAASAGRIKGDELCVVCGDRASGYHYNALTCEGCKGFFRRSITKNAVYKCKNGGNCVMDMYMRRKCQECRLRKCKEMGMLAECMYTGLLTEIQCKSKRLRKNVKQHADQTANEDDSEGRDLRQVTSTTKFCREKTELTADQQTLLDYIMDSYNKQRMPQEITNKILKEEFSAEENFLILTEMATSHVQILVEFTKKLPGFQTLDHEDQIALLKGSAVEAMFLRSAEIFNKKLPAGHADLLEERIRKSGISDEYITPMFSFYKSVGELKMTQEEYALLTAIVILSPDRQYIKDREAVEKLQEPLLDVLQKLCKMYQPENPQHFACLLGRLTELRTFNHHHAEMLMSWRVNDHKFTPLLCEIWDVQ
T1 sequence (P28700 1-467 partner): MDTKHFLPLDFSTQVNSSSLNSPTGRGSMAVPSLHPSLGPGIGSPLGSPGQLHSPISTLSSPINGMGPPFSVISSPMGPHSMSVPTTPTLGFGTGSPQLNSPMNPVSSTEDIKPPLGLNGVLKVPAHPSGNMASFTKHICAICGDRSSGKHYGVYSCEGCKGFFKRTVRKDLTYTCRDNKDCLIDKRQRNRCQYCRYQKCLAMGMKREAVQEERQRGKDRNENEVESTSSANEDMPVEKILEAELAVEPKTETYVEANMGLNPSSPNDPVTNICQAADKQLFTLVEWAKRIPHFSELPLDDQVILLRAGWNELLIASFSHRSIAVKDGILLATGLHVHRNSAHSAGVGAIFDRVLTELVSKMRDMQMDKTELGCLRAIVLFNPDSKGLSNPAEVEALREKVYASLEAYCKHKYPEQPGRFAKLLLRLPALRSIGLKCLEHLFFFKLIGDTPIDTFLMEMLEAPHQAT

| Induction of FXR-dependent transcription | Compound |
| --- | --- |
| reached statistical significance | C[C@H](CCC=C(CO)CO)[C@H]1CC[C@@]2(C)C3=CC[C@H]4C(C)(C)C(=O)CC[C@]4(C)C3=CC[C@]12C [Compound 14, ganoderiol F] |
| reached statistical significance | C[C@H](CC[C@H](O)[C@](C)(O)CO)[C@H]1CC[C@@]2(C)C3=CC[C@H]4C(C)(C)C(=O)CC[C@]4(C)C3=CC[C@]12C [Compound 13, ganodermanontriol] |

The next lines start with the compound.

| Compound | Induction of FXR-dependent transcription |
| --- | --- |
| CC(C)[C@@H](C)/C=C/[C@@H](C)[C@H]1CC[C@@H]2[C@]1(C)CC[C@H]1[C@]23C=C[C@]2(C[C@@H](O)CC[C@]12C)OO3 [Compound 2, ergosterol peroxide] | reached statistical significance |
| ganoderic acid TR [Compound 12] | reached statistical significance |
| C[C@H](CC[C@H](O)C(C)(C)O)[C@H]1CC[C@@]2(C)C3=C(CC[C@]12C)[C@@]1(C)CCC(=O)C(C)(C)[C@@H]1CC3=O [Compound 11, lucidumol A] | reached statistical significance |

same assay, conditions: dose-dependent FXR reporter activation; test concentrations 0.1-50 μM

| EC50 [µM] | Compound |
| --- | --- |
| > 14 | ganoderic acid TR [Compound 12] |

same assay, conditions: pure compounds 10 μg/mL; compared with CDCA 25 μM

| Compound | FXR induction (percent of CDCA) |
| --- | --- |
| COc1cc(CNC(=O)CCCCCCC(C)C)ccc1O [dihydrocapsaicin] | No activation |
| COc1ccc(-c2oc3cc(OC)c(OC)c(O)c3c(=O)c2OC)cc1OC [artemisetin] | activated FXR significantly, but at lower extent than CDCA |
| C=CC(C)(C)c1cc2cc3c(cc2oc1=O)OC(C(C)(C)OC(C)=O)C3 (stereo not drawn) [rutamarin] | activated FXR significantly, but at lower extent than CDCA |
